The text below walks through data of patent US9475839B2, “Peptide-based inhibitor of interleukin-10 or interferon-gamma signaling” (THE UNITED STATES OF AMERICA, AS REPRESENTED BY THE …, priority 2010, dated 2016).

Test [1] deals with mouse mast MC/9 cells. Nature of the test: Inhibition of IL10-dependent growth of MC/9 cells, MTT assay, 48 hours. The test is classed as cell-based. A general note: Tetrazolium assays rely on reduction of a dye to a coloured formazan, in cell work by metabolically active cells.
Protocol: (§1) Cells were exposed to compounds for 48 hours and cell number was determined with the help of MTT assay.
(§2) Cells were exposed to IL10-HF-1 for 48 hours and cell number was determined with the help of MTT assay.
(§3) Peptides designed to mimic conserved regions of the receptor sequences were tested for the ability to inhibit IL10 and IFN-gamma signaling. Inhibition of IL10 signaling was tested in a mouse mast cell line MC/9. […] Abrogation of IFN-gamma signaling or STAT1 activation causes cell death in this cell line.
The test system of test [2] is MDA-MB-231 breast cancer cells. Nature of the test: Inhibition of IFN-gamma-dependent growth of MDA-MB-231 cells, MTT assay, 48 hours. The test is classed as cell-based. The conditions noted are these: 48 h.
Protocol: as §1, §2, §3
Test [3] addresses T1, recombinant human IFN-gamma (Homo sapiens, UniProt P01579).
T1 sequence (P01579 24-161 limits assumed): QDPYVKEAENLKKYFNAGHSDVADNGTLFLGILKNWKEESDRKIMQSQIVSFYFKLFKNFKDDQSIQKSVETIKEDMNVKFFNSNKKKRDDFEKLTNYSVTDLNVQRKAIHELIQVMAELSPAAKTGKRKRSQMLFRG
Kind of test: Microscale thermophoresis binding to IFN-gamma. The conditions noted are these: result in words. From the text: To evaluate whether synthetic helix F analogs could interact with the corresponding cytokine, fluorescent derivatives of helix F were synthesized. The helix F analogs are described below.
On the technique in general: MST reads how a fluorescent partner responds to local heating, with and without ligand.

Where [4] appears, read: Table 4, compounds mimicking conserved regions of IL10R1, cell line not given, read-out: GI50.

Like-named read-outs stand apart in the source and are kept apart here. Positions of bridges follow the written chain, without caps; N, C: chain ends. Non-standard residues stand in square brackets, D forms with d. Residues, ends and D or L forms follow the SMILES beside them. Chains are numbered I, II in the order given. ξ: configuration not given here. *: point of attachment. C(fluorescein) = cysteine carrying a fluorescein label; Palmitoyl = CCCCCCCCCCCCCCCC(=O)*; PEG4 = NCCOCCOCCOCCOCCC(=O)O; Nle = CCCC[C@H](N)C(=O)O; Aib = CC(C)(N)C(=O)O; ξK = NCCCCC(N)C(=O)O

For `CCCC[C@H](NC(=O)[C@H](Cc1ccc(O)cc1)NC(=O)[C@H](C)NC(=O)[C@H](CCC(=O)O)NC(=O)[C@@H](NC(=O)[C@H](Cc1ccc(O)cc1)NC(=O)[C@H](CC(N)=O)NC(=O)[C@@H](NC(=O)[C@H](Cc1ccccc1)NC(=O)[C@@H](NC(=O)[C@H](CC(=O)O)NC(=O)[C@H](Cc1ccccc1)NC(=O)[C@H](CCC(=O)O)NC(=O)[C@H](CO)NC(=O)C(C)(C)NC(C)=O)[C@@H](C)CC)[C@@H](C)CC)[C@@H](C)CC)C(=O)NCCOCCOCCOCCOCCC(=O)NCCCCC(NC(=O)CCOCCOCCOCCOCCNC(=O)[C@H](CCCC)NC(=O)[C@H](Cc1ccc(O)cc1)NC(=O)[C@H](C)NC(=O)[C@H](CCC(=O)O)NC(=O)[C@@H](NC(=O)[C@H](Cc1ccc(O)cc1)NC(=O)[C@H](CC(N)=O)NC(=O)[C@@H](NC(=O)[C@H](Cc1ccccc1)NC(=O)[C@@H](NC(=O)[C@H](CC(=O)O)NC(=O)[C@H](Cc1ccccc1)NC(=O)[C@H](CCC(=O)O)NC(=O)[C@H](CO)NC(=O)C(C)(C)NC(C)=O)[C@@H](C)CC)[C@@H](C)CC)[C@@H](C)CC)C(N)=O` (stereo partly shown) [IL10-HF-1] (I: Ac-[Aib]SEFDIFINYIEAY[Nle][PEG4][ξK]-NH2 / II: Ac-[Aib]SEFDIFINYIEAY[Nle][PEG4]; amide I:17-II:C), the GI50 in test [1] (FIG. 2, 48 hours exposure, MTT assay, read-out: GI50, IL10 dependent growth of MC/9) came out at 50 nM. Turning to `CCCCCCCCCCCCCCCC(=O)N[C@@H](CC(C)C)C(=O)N[C@@H](Cc1ccc(O)cc1)C(=O)N[C@H](C(=O)N[C@@H](CCCNC(=N)N)C(=O)N[C@@H](CCCNC(=N)N)C(=O)N[C@@H](CCCNC(=N)N)C(=O)N[C@@H](CCCCN)C(=O)N[C@@H](CCCCN)C(=O)N[C@@H](CC(C)C)C(=O)N1CCC[C@H]1C(=O)N[C@@H](CO)C(=O)N[C@H](C(=O)N[C@@H](CC(C)C)C(=O)N[C@@H](CC(C)C)C(=O)N[C@@H](Cc1ccccc1)C(=O)N[C@@H](CCCCN)C(=O)N[C@@H](CCCCN)C(N)=O)C(C)C)C(C)C` [IL10R1-1, Pal-LYVRRRKKLPSVLLFKK-NH2] (Palmitoyl-LYVRRRKKLPSVLLFKK-NH2), the GI50 came out at 25 nM in test [2] and 1000 nM in test [1] (48 h). On the same counts, the results for `CCCCCCCCCCCCCCCC(=O)NCCCC[C@H](N)C(=O)N[C@@H](CCCCN)C(=O)N[C@@H](CC(C)C)C(=O)N1CCC[C@H]1C(=O)N[C@@H](CO)C(=O)N[C@H](C(=O)N[C@@H](CC(C)C)C(=O)N[C@@H](CC(C)C)C(=O)N[C@@H](Cc1ccccc1)C(=O)N[C@@H](CCCCN)C(=O)N[C@@H](CCCCN)C(=O)N1CCC[C@H]1C(=O)N[C@@H](CO)C(N)=O)C(C)C` [IL10R1-3, ε-Pal-KKLPSVLLFKKPS-NH2] (H-K(Palmitoyl)KLPSVLLFKKPS-NH2; N-terminus assumed) are 2500 nM and 50 nM.

For the molecule `CCCCCCCCCCCCCCCC(=O)N[C@@H](CC(C)C)C(=O)N[C@@H](Cc1c[nH]cn1)C(=O)NCC(=O)N[C@@H](CO)C(=O)N[C@H](C(=O)N[C@@H](CC(=O)O)C(=O)N[C@@H](CO)C(=O)NCC(=O)N[C@@H](Cc1ccccc1)C(=O)NCC(=O)N[C@@H](CO)C(=O)N[C@H](C(=O)N[C@@H](CCCCN)C(=O)N1CCC[C@H]1C(=O)N[C@@H](CO)C(=O)N[C@@H](CC(C)C)C(=O)N[C@@H](CCC(N)=O)C(=O)N[C@H](C(=O)O)[C@@H](C)O)[C@@H](C)O)[C@@H](C)O` [IL10R1-5, Pal-LHGSTDSGFGSTKPSLQT] (Palmitoyl-LHGSTDSGFGSTKPSLQT-OH; N-terminus and C-terminus assumed), the GI50 in test [1] (48 h) worked out at 1000 nM. Regarding `CCCCCCCCCCCCCCCC(=O)NCCCC[C@H](N)C(=O)N[C@@H](CC(C)C)C(=O)N[C@H](C(=O)N[C@H](C(=O)N[C@@H](CC(C)C)C(=O)N1CCC[C@H]1C(=O)N[C@@H](CC(C)C)C(=O)N[C@H](C(=O)N[C@@H](CO)C(=O)N[C@@H](CO)C(=O)N[C@@H](CC(C)C)C(=O)N[C@@H](CCC(N)=O)C(=O)N[C@@H](CO)C(=O)N[C@@H](CO)C(=O)N[C@@H](CCC(=O)O)C(N)=O)[C@@H](C)CC)[C@@H](C)O)C(C)C` [IL10R1-7, ε-Pal-KLVTLPLISSLQSSE-NH2] (H-K(Palmitoyl)LVTLPLISSLQSSE-NH2; N-terminus assumed), in test [1] (48 h), the GI50 came to 5000 nM. On the same count and under the same terms, under `CCCCCCCCCCCCCCCC(=O)NCCCC[C@H](N)C(=O)N1CCC[C@H]1C(=O)N1CCC[C@H]1C(=O)N[C@@H](C)C(=O)N[C@@H](CC(C)C)C(=O)N[C@@H](C)C(=O)N[C@@H](CCCCN)C(=O)NCC(=O)N[C@@H](Cc1ccc(O)cc1)C(=O)N[C@@H](CC(C)C)C(=O)N[C@@H](CCCCN)C(=O)N[C@@H](CCC(N)=O)C(N)=O` [IL10R1-8, ε-Pal-KPPALAKGYLKQ-NH2] (H-K(Palmitoyl)PPALAKGYLKQ-NH2; N-terminus assumed) stands 5000 nM. As for `CCCCCCCCCCCCCCCC(=O)NCCCC[C@@H](NC(=O)[C@@H](CC(C)C)NC(=O)[C@@H](Cc1c[nH]cn1)NC(=O)CNC(=O)[C@@H](CO)NC(=O)[C@H](NC(=O)[C@@H](CC(=O)O)NC(=O)[C@@H](CO)NC(=O)CNC(=O)[C@@H](Cc1ccccc1)NC(=O)CNC(=O)[C@@H](CO)NC(=O)[C@H](NC(=O)[C@@H](CCCCN)NC(=O)[C@H]1CCCN1C(=O)[C@@H](CO)NC(=O)[C@@H](CC(C)C)NC(=O)[C@@H](CCC(N)=O)NC(=O)[C@H](NC(=O)[C@@H](CCC(=O)O)NC(=O)[C@@H](CCC(=O)O)NC(C)=O)[C@H](C)O)[C@H](C)O)[C@H](C)O)C(N)=O` [IL10R1-14] (Ac-[dE][dE][dT][dQ][dL][dS][dP][dK][dT][dS]G[dF]G[dS][dD][dT][dS]G[dH][dL][dK](Palmitoyl)-NH2; C-terminus assumed), the GI50 in test [1] (setting [4]) was determined as 1000 nM. The same measure, in the same setting: under `CCCCCCCCCCCCCCCC(=O)NCCCC[C@@H](NC(=O)[C@@H](CC(C)C)NC(=O)[C@@H](Cc1c[nH]cn1)NC(=O)CNC(=O)[C@@H](CO)NC(=O)[C@H](NC(=O)[C@@H](CC(=O)O)NC(=O)[C@@H](CO)NC(=O)CNC(=O)[C@@H](Cc1ccccc1)NC(=O)CNC(=O)[C@@H](CO)NC(=O)[C@H](NC(=O)[C@@H](CCCCN)NC(=O)[C@H]1CCCN1C(=O)[C@@H](CO)NC(=O)[C@@H](CC(C)C)NC(=O)[C@@H](CCC(N)=O)NC(=O)[C@H](NC(=O)[C@@H](CCC(=O)O)NC(C)=O)[C@H](C)O)[C@H](C)O)[C@H](C)O)C(N)=O` [IL10R1-15] (Ac-[dE][dT][dQ][dL][dS][dP][dK][dT][dS]G[dF]G[dS][dD][dT][dS]G[dH][dL][dK](Palmitoyl)-NH2; C-terminus assumed) stands > 5000 nM; under `CCCCCCCCCCCCCCCC(=O)NCCCC[C@@H](N)C(=O)N[C@@H](C(=O)N[C@H](CCC(N)=O)C(=O)N[C@H](CC(C)C)C(=O)N[C@H](CO)C(=O)N1CCC[C@@H]1C(=O)N[C@H](CCCCN)C(=O)N[C@@H](C(=O)N[C@H](CO)C(=O)NCC(=O)N[C@H](Cc1ccccc1)C(=O)NCC(=O)N[C@H](CO)C(=O)N[C@H](CC(=O)O)C(=O)N[C@@H](C(=O)N[C@H](CO)C(=O)NCC(=O)N[C@H](Cc1c[nH]cn1)C(=O)N[C@H](CC(C)C)C(N)=O)[C@H](C)O)[C@H](C)O)[C@H](C)O` [IL10R1-17, ε-Pal-KTQLSPKTSGFGSDTSGHL-NH2] (H-[dK](Palmitoyl)[dT][dQ][dL][dS][dP][dK][dT][dS]G[dF]G[dS][dD][dT][dS]G[dH][dL]-NH2; N-terminus assumed), > 5000 nM. Turning to `CCCCCCCCCCCCCCCC(=O)NCCCC[C@H](N)C(=O)N[C@@H](CC(C)C)C(=O)N[C@H](C(=O)N[C@H](C(=O)N[C@@H](CC(C)C)C(=O)N1CCC[C@H]1C(=O)N[C@@H](CC(C)C)C(=O)N[C@H](C(=O)N[C@@H](CO)C(=O)N[C@@H](CO)C(=O)N[C@@H](CC(C)C)C(=O)N[C@@H](CCC(N)=O)C(N)=O)[C@@H](C)CC)[C@@H](C)O)C(C)C` [IL10R1-27, ε-Pal-KLVTLPLISSLQ-NH2] (H-K(Palmitoyl)LVTLPLISSLQ-NH2; N-terminus assumed), the GI50 in test [1] (48 h) was > 5000 nM. As for “Ac-C(Fluo)VQRKAIHELIQVx^13AELSPAAKT-NH2 ({Ac-C(fluorescein)}-VQRKAIHELIQV[Nle]AELSPAAKT-NH2) [IFNG-HF-6]”, the “Affinity for IFN-gamma” value in test [3] is recorded as “unexpectedly high affinity”.
